The text below walks through data of patent US20260250627A1, “A new bacterial strain Weissella cibaria, a composition comprising it, a pharmaceutical composition for use, a dietary supplement, a probiotic preparation, a bacterial starter culture for making bread, sourdough, bread, a method for the production of bread, a method for microbiological production …” (INSTYTUT BIOCHEMII I BIOFIZVKI PAN, priority 2023, published 2026).

In brackets after ≈: the same amount, converted by molar mass. Some results are limits rather than exact numbers.

In the first experiment the test system is IBB3394 strain (KKP 2094p). Briefly: Antibiotic sensitivity test with E-test strips (Example 11). The format is cell-based, Weissella cibaria. The note with it: E-test strips, IST-MRS, 30° C., 48 h, aerobic. The method, then: The safety assessment of the selected strain of Weissella sp. IBB3394 was carried out by testing antibiotic susceptibility using E-test strips (bioMerieux) in accordance with the manufacturer's recommendations. The tested strain was seeded on IST-MRS solid medium and incubated at 30° C. in aerobic conditions. […] Antibiotic strips were placed on the surface of the plate and the plates were incubated at 30° C. for 48 h in aerobic conditions.
With gentamicin [GM], the “Minimum inhibitory concentration (MIC) IBB3394” value is 4 µg/mL.

The same experiment, now with this note: Weissella cibaria, 48 h, read-out: Minimum inhibitory concentration (MIC) IBB3394.
In the case of `CN[C@H](CC(C)C)C(=O)N[C@H]1C(=O)N[C@@H](CC(N)=O)C(=O)N[C@H]2C(=O)N[C@H]3C(=O)N[C@H](C(=O)N[C@H](C(=O)O)c4cc(O)cc(O)c4-c4cc3ccc4O)[C@H](O)c3ccc(c(Cl)c3)Oc3cc2cc(c3O[C@@H]2O[C@H](CO)[C@@H](O)[C@H](O)[C@H]2O[C@H]2C[C@](C)(N)[C@H](O)[C@H](C)O2)Oc2ccc(cc2Cl)[C@H]1O` [VA, vancomycin], the MIC was above 256 µg/mL.

Still in this experiment, the particulars now being: Weissella cibaria; E-test strips, IST-MRS, 30° C., 48 h, aerobic; read-out: Minimum inhibitory concentration (MIC) IBB3394.
`CC1(C)S[C@@H]2[C@H](NC(=O)[C@H](N)c3ccccc3)C(=O)N2[C@H]1C(=O)O` [AM, ampicillin]: the MIC lay in the range of 0.38 to 0.5 µg/mL (≈ 1.09 to 1.43 µM).
Same read-out and setting: the value for `O=C(N[C@H](CO)[C@H](O)c1ccc([N+](=O)[O-])cc1)C(Cl)Cl` [CL, chloramphenicol] was 2 to 3 µg/mL (≈ 6.19 to 9.28 µM); that for `CCC[C@@H]1C[C@@H](C(=O)N[C@@H]([C@H]2O[C@H](SC)[C@H](O)[C@@H](O)[C@H]2O)[C@H](C)Cl)N(C)C1` [CM, clindamycin] was 0.016 µg/mL (≈ 0.0376 µM).
On the same count and under the same terms, the value for `CC[C@H]1OC(=O)[C@H](C)[C@@H](O[C@H]2C[C@@](C)(OC)[C@@H](O)[C@H](C)O2)[C@H](C)[C@@H](O[C@@H]2O[C@H](C)C[C@H](N(C)C)[C@H]2O)[C@](C)(O)C[C@@H](C)C(=O)[C@H](C)[C@@H](O)[C@]1(C)O` [EM, erythromycin] was 0.094 µg/mL (≈ 0.128 µM).
In the case of `NC[C@H]1O[C@H](O[C@H]2[C@H](O)[C@@H](O[C@H]3O[C@H](CO)[C@@H](O)[C@H](N)[C@H]3O)[C@H](N)C[C@@H]2N)[C@H](O)[C@@H](O)[C@@H]1O` [KM, kanamycin], the MIC turned out to be 16 µg/mL (≈ 33 µM).
Same read-out and setting: with `[H]/N=C(/N)N[C@H]1[C@H](O)[C@@H](O)[C@H](O[C@@H]2O[C@@H](C)[C@](O)(C=O)[C@H]2O[C@@H]2O[C@@H](CO)[C@H](O)[C@@H](O)[C@@H]2NC)[C@@H](N/C(N)=N\[H])[C@@H]1O` [SM, streptomycin] the figure was 8 µg/mL (≈ 13.8 µM); with `CN(C)[C@@H]1C(O)=C(C(N)=O)C(=O)[C@@]2(O)C(O)=C3C(=O)c4c(O)cccc4[C@@](C)(O)[C@H]3C[C@@H]12` [TC, tetracycline], 2 µg/mL (≈ 4.5 µM).
